Read-outs that look alike come from different tables or passages of the source.
Tests used:
[1] = biological target: human mGluR5a receptor (Homo sapiens, UniProt P41594); assay: Cell-based functional Ca2+ mobilization assay (FDSS), potentiation of glutamate EC20 response in H10H cell line; settings: for Emax: percent of maximal glutamate response, human mGluR5 HEK cells; for EC50 / pEC50: HEK cells transfected with human mGluR5 (H10H), presence of glutamate EC20
Experimental: Human embryonic kidney (HEK) cells transfected with rat mGluR5 were plated in clear bottom assay plates for assay in a Functional Drug Screening System (FDSS). In the alternative assay, HEK cells transfected with human mGluR5 (H10H cell line) were plated for assay in the FDSS. […] The cells were loaded with a Ca^2+-sensitive fluorescent dye (e.g., Fluo-4), and the plates were washed and placed in the FDSS instrument. After establishment of a fluorescence baseline for twelve seconds, the compounds of the present invention were added to the cells, and the response in cells was measured. Alternatively, in various further aspects, after establishment of a fluorescence baseline for about three seconds, the compounds of the present invention were added to the cells, and the response in cells was measured. Five minutes later, an mGluR5 agonist (e.g., glutamate, 3,5-dihydroxyphenylglycine, or quisqualate) was added to the cells, and the response of the cells was measured.
The above described assay operated in two modes. In the first mode, a range of concentrations of the present compounds were added to cells, followed by a single fixed concentration of agonist. If a compound acted as a potentiator, an EC50 value for potentiation and a maximum extent of potentiation by the compound at this concentration of agonist was determined by non-linear curve fitting. In the second mode, several fixed concentrations of the present compounds were added to various wells on a plate, followed by a range of concentrations of agonist for each concentration of present compound; the EC50 values for the agonist at each concentration of compound were determined by non-linear curve fitting. A decrease in the EC50 value of the agonist with increasing concentrations of the present compounds (a leftward shift of the agonist concentration-response curve) is an indication of the degree of mGluR5 potentiation at a given concentration of the present compound. An increase in the EC50 value of the agonist with increasing concentrations of the present compounds (a rightward shift of the agonist concentration-response curve) is an indication of the degree of mGluR5 antagonism at a given concentration of the present compound. The second mode also indicates whether the present compounds also affect the maximum response to mGluR5 to agonists.
The mGluR5 activity was determined using the metabotropic glutamate receptor activity assays in human embryonic kidney cells as described herein, wherein the human embryonic kidney cells were transfected with human mGluR5. The compounds in Table 1 were synthesized with methods identical or analogous to those shown herein. The requisite starting materials were commercially available, described in the literature, or readily synthesized by one skilled in the art of organic synthesis.
Human mGluR5a cDNA in pCMV6-XL6 mammalian expression plasmid was purchased from OriGene Technologies, Inc. (catalogue number SC326357) and subcloned into pcDNA3.1(−). Human embryonic kidney (HEK)293A cells were then transfected with human mGluR5a pcDNA3.1(−) using LipofectAmine2000 (Invitrogen) and monoclones were selected and tested for functional response using a Ca^2+ mobilization assay. Monoclones were named for the species (“H” for human) plus the location on the plate (e.g. “10H”).
HEK cells transfected with the human mGluR5a receptor (H10H cell line) were plated at 15,000 cells/well in clear-bottomed poly-D-lysine-coated assay plates (BD Falcon) in glutamate-glutamine-free growth medium and incubated overnight at 37° C. and 5% CO2. The following day, the growth medium was removed and the cells were washed with assay buffer containing 1× Hank's balanced salt solution (Invitrogen, Carlsbad, Calif.), 20 mM HEPES, 2.5 mM probenecid, pH 7.4 and left with 20 μL of this reagent.

[2] = HEK293, maximum average response at a single concentration, read-out: Emax
[3] = maximum average response at a single concentration

Chain of human mGluR5a receptor (P41594 21-1180 isoform P41594-2 limits assumed): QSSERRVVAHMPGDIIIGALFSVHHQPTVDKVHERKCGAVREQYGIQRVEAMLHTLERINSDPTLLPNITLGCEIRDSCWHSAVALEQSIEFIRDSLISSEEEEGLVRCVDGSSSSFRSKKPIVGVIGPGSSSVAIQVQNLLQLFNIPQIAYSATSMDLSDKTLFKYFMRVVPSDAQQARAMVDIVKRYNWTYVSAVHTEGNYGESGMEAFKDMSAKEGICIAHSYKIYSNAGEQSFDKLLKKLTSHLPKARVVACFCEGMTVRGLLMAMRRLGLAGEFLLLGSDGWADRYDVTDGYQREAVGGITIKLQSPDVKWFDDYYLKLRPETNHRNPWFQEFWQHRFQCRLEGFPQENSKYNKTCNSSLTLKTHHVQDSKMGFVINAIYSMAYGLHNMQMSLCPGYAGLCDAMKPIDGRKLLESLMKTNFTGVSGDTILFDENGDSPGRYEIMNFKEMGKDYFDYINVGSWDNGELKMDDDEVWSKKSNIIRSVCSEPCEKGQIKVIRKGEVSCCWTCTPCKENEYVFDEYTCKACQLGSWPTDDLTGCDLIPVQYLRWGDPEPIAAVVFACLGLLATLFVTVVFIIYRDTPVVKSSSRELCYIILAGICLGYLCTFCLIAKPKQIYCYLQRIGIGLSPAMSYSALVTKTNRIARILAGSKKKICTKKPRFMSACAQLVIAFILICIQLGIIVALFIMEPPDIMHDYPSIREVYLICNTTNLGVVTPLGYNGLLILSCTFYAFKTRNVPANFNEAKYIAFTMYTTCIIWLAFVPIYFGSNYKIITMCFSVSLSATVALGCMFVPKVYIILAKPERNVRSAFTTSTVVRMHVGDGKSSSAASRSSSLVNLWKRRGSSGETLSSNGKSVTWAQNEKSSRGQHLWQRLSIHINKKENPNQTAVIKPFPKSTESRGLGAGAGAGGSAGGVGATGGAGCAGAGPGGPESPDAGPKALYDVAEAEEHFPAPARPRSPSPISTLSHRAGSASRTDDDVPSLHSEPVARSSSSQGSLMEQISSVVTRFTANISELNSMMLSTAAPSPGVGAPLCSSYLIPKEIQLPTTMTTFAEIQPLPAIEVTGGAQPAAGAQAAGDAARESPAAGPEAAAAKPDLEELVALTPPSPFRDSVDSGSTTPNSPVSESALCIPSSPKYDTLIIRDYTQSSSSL

Compound	melting point	Emax [1, 2]	EC50 ([1]; read-out: EC50)	pEC50 ([1]; concentration in mol/L)	EC50 ([1]; concentration in mol/L, read-out: pEC50 (converted))	Emax [1, 3]
CC1CN(C(=O)c2ccc(F)cc2)Cc2cc(COc3ccccc3)nn21 (racemic) [Compound 16]	126.5 °C	77%	172 nM	–	–	–
CC1Cn2nc(COc3ccccc3)cc2CN1C(=O)c1ccc(F)cc1 (racemic) [Compound 17]	–	81%	673 nM	–	–	–
O=C(c1ccc(F)cc1)N1CCn2nc(COc3ccccc3)cc2C1C(F)(F)F (racemic) [Compound 53]	53.1 °C	67%	2630 nM	–	–	–
CC(Oc1ccccc1)c1cc2n(n1)CCN(C(=O)c1ccc(F)cc1)C2 (racemic) [Compound 54]	–	25%	> 30200 nM	–	–	–
O=C(c1ccc(F)cc1)N1CCn2nc(COc3ccccc3)cc2C1 [Compound 1]	106 °C	67%	161 nM	6.79	–	–
O=C(c1ccccc1F)N1CCn2nc(COc3ccccc3)cc2C1 [Compound 2]	–	76%	201 nM	6.70	–	–
O=C(c1cccc(F)c1)N1CCn2nc(COc3ccccc3)cc2C1 [Compound 3]	–	66%	169 nM	6.77	–	–
O=C(c1ccc(F)c(F)c1)N1CCn2nc(COc3ccccc3)cc2C1 [Compound 4]	100.6 °C	70%	414 nM	6.38	–	–
O=C(c1cc(F)cc(F)c1)N1CCn2nc(COc3ccccc3)cc2C1 [Compound 5]	–	50%	79.6 nM	7.10	–	–
O=C(c1c(F)cccc1F)N1CCn2nc(COc3ccccc3)cc2C1 [Compound 6]	95.8 °C	74%	292 nM	6.53	–	–
O=C(c1cccc(F)c1F)N1CCn2nc(COc3ccccc3)cc2C1 [Compound 7]	–	58%	406 nM	6.39	–	–
O=C(c1ccc(F)cc1F)N1CCn2nc(COc3ccccc3)cc2C1 [Compound 8]	–	78%	208 nM	6.68	–	–
O=C(c1ccccc1)N1CCn2nc(COc3cccc(F)c3)cc2C1 [Compound 9]	159.2 °C	72%	257 nM	6.59	–	–
O=C(c1cccc(F)c1)N1CCn2nc(COc3cccc(F)c3)cc2C1 [Compound 10]	–	69%	269 nM	6.57	–	–
O=C(c1ccc(F)cc1F)N1CCn2nc(COc3cccc(F)c3)cc2C1 [Compound 11]	79.7 °C	82%	273 nM	6.56	–	–
O=C(c1ccc(F)cc1)N1CCn2nc(COc3cccc(F)c3)cc2C1 [Compound 12]	126.9 °C	69%	–	–	–	–
O=C(c1ccc(F)c(F)c1)N1CCn2nc(COc3cccc(F)c3)cc2C1 [Compound 13]	112.7 °C	75%	587 nM	6.23	–	–
Cc1cccnc1C(=O)N1CCn2nc(COc3cccc(F)c3)cc2C1 [Compound 14]	125.4 °C	51%	> 10000 nM	<5.00	–	–
Cc1ccc(C(=O)N2CCn3nc(COc4cccc(F)c4)cc3C2)cn1 [Compound 15]	88.2 °C	30%	> 30200 nM	<4.52	–	–
CC1(C)CN(C(=O)c2ccc(F)cc2)Cc2cc(COc3ccccc3)nn21 [Compound 18]	–	66%	256 nM	6.59	–	–
O=C(c1ncccc1F)N1CCn2nc(COc3cccc(F)c3)cc2C1 [Compound 20]	114 °C	65%	2950 nM	5.53	–	–

Compound	melting point	Emax [1, 2]	EC50 ([1]; read-out: EC50)	pEC50 ([1]; concentration in mol/L)	EC50 ([1]; concentration in mol/L, read-out: pEC50 (converted))	Emax [1, 3]
O=C(c1ncc(F)cc1F)N1CCn2nc(COc3cccc(F)c3)cc2C1 [Compound 21]	> 300 °C	77%	1280 nM	5.89	–	–
Cc1ncccc1C(=O)N1CCn2nc(COc3cccc(F)c3)cc2C1 [Compound 22]	–	34%	2910 nM	5.53	–	–
O=C(c1cncc(F)c1)N1CCn2nc(COc3cccc(F)c3)cc2C1 [Compound 23]	> 300 °C	58%	1370 nM	–	1510 nM	–
Cc1cccc(C(=O)N2CCn3nc(COc4cccc(F)c4)cc3C2)n1 [Compound 24]	88 °C	58%	3030 nM	5.51	–	–
N#Cc1cccc(C(=O)N2CCn3nc(COc4ccccc4)cc3C2)c1 [Compound 25]	–	60%	457 nM	6.34	–	–
N#Cc1cc(F)cc(C(=O)N2CCn3nc(COc4ccccc4)cc3C2)c1 [Compound 26]	109.8 °C	52%	83 nM	7.08	–	–
N#Cc1ccc(C(=O)N2CCn3nc(COc4ccccc4)cc3C2)cc1F [Compound 27]	60.3 °C	23%	> 30200 nM	<4.52	–	–
O=C(c1cnccn1)N1CCn2nc(COc3cccc(F)c3)cc2C1 [Compound 34]	–	60%	3020 nM	5.52	–	–
Cc1ncc(C(=O)N2CCn3nc(COc4cccc(F)c4)cc3C2)cn1 [Compound 37]	–	12%	> 30200 nM	<4.52	–	–
O=C(c1ccc(F)cc1)N1CCn2nc(COc3ccc(F)cc3)cc2C1 [Compound 38]	–	58%	295 nM	6.53	–	–
CC1CN(C(=O)c2ccc(F)cc2)Cc2cc(COc3ccccc3)nn21 (centres unmarked) [Compound 40]	–	58%	708 nM	6.15	–	–
CC1CN(C(=O)c2ccc(F)cc2)Cc2cc(COc3ccccc3)nn21 (centres unmarked) [Compound 41]	–	–	162 nM	6.79	–	74%
CC1CN(C(=O)c2cccc(F)c2)Cc2cc(COc3ccccc3)nn21 (centres unmarked) [Compound 42]	–	69%	138 nM	6.86	–	–
CC1CN(C(=O)c2cc(F)cc(C#N)c2)Cc2cc(COc3ccccc3)nn21 (centres unmarked) [Compound 44]	–	66%	692 nM	6.16	–	–
CC1Cn2nc(COc3ccccc3)cc2CN1C(=O)c1cccc(F)c1 (centres unmarked) [Compound 47]	–	52%	1070 nM	5.97	–	–
CC1Cn2nc(COc3ccccc3)cc2CN1C(=O)c1cccc(F)c1 (centres unmarked) [Compound 48]	–	–	490 nM	6.31	–	67%
CC1Cn2nc(COc3ccccc3)cc2CN1C(=O)c1cc(F)cc(C#N)c1 (centres unmarked) [Compound 51]	–	56%	759 nM	6.12	–	–
CC1Cn2nc(COc3ccccc3)cc2CN1C(=O)c1cc(F)cc(C#N)c1 (centres unmarked) [Compound 52]	–	–	> 10000 nM	<5.00	–	69%
O=C(c1ccc(F)cc1)N1CCn2nc(COc3ccccc3)c(F)c2C1 [Compound 56]	–	62%	550 nM	6.26	–	–
Nc1c(COc2ccccc2)nn2c1CN(C(=O)c1ccc(F)cc1)CC2 [Compound 58]	–	51%	4570 nM	5.34	–	–
COc1c(COc2ccccc2)nn2c1CN(C(=O)c1ccc(F)cc1)CC2 [Compound 59]	–	15%	1820 nM	5.74	–	–

— patent US9255103B2, “Substituted pyrazolo[1,5-a]pyrazines as mGluR5 receptor modulators” (Vanderbilt University, priority 2010, dated 2016)
